Results: patent EP0036269A1, “Substituted benzamides” (BEECHAM GROUP PLC, priority 1980, dated 1981)
Read-outs that look alike come from different tables or passages of the source.

Tests used:
Type in all cases: in vivo
[1] = test system: apomorphine induced stereotypy; test: Inhibition of apomorphine-induced biting in the rat; details: apomorphine 5 mg/kg sc, compounds administered subcutaneously 15 minutes after apomorphine, stereotypy scored for 90 mins
Experimental: (§1) Compounds were also tested for their ability to inhibit apomorphine induced stereotypy in rodents. Inactivity in these tests may be indicative of a low propensity to produce extra pyramidal side effects in man. The tests used were as follows.
Apomorphine 5 mg/kg sc induces a stereotypic gnawing behaviour in rats which can be measured by a subjective scoring system; score O - animal behaving normally; score 1 - increased locomotion activity with occassional sniffing and licking; score 2 - persistent licking of the bars of the cage with occassional biting; score 3 - more sustained biting; score 4 - intense biting at a particular part of the cage, animal no longer moving about.
Animals are individually placed in wire cages and after being allowed to become acclimatised are injected with apomorphine 5 mg/kg sc. Stereotypy is scored at 10 min intervals for 90 mins after apomorphine. Compounds are administered subcutaneously 15 minutes after the apomorphine.

[2] = test system: intra-gastric pressure in the rat; test: Increase in intragastric pressure in the rat; details: conscious restrained starved rats, 40 minute period after administration; for minimal effective dose: Rattus norvegicus, po, 40 min, read-out: minimum dose for activity
Experimental: The compounds of the Examples were tested for pharmacological activity in increasing intra-gastric pressure in the rat. Intragastric pressure changes were recorded from previously starved conscious and restrained rats using a fluid filled catheter inserted into the lumen of the stomach via a permanent gastric fistula. The catheter was connected to a physiological pressure transducer and pressure changes recorded on a hot wire pen recorder. In each animal a pre-dose period of 40 minutes was allowed to obtain a measure of spontaneous activity. An index of activity was obtained by measuring the average height of pressure waves during 10 minute periods. Values for 4 such periods were obtained during assessment of spontaneous activity and for the 40 minute period after the administration of the Compounds. Student "t" test was applied to the difference in average values obtained for spontaneous and post compound activity.

[3] = test system: apomorphine induced stereotypy; test: Inhibition of apomorphine-induced climbing in the mouse; details: for ED50: sc, inhibition of climbing induced by apomorphine 1 mg/kg sc
Experimental: as §1
This test is based on that described by Protain, P. et al (1976) Psychopharmacol. 50, 1-6.
Apomorphine 1 mg/kg sc induced mice to climb the wall of a wire cage (inverted food hopper - 11 x 7.5 x 18 cm high). Mice acclimatised in their home cages in groups of 5 are placed under the hoppers immediately after the injection of apomorphine 1 mg/kg SC. At 10, 20 and 30 minutes after injection climbing behaviour scored. The mice are observed for 30 seconds and scored according to the position in which they spend the majority of time; score O - four paws on floor of cage; score 1 - 2 paws only on walls; score 2 - all four paws on wall of cage.
The scores at all 3 times for each mouse are summed for apomorphine only and for apomorphine plus compound groups of mice

Row | SMILES | Inhibition of apomorphine-induced biting [1] | also measured
1 | COc1cc(N)c(Cl)cc1C(=O)NCC1CC2CCCCN2C1 (racemic) [Example 12, (±) 4-Amino-5-chloro-2-methoxy-N-(2'-indolizidinyl-methyl)-benzamide] | inactive | –
2 | COc1cc(N)c(Cl)cc1C(=O)NCC1CCC2CCCCN21 (single isomer, unassigned) [14 (Isomer B), (±) 4-Amino-5-chloro-2-methoxy-N-(3'-indolizidiny-methyl)-benzamide] | inactive | minimal effective dose ([2]; Subcut): 0.2 mg/kg; ED50 [3]: 15 mg/kg
3 | COc1cc(N)c(Cl)cc1C(=O)NCC1CCC2CCCCN2C1 (single isomer, unassigned) [2 (Isomer B), (±) 4-Amino-5-chloro-2-methoxy-N-(3'-quinolizidinyl-methyl)-benzamide] | inactive | minimum dose for activity ([2]; Subcut): 5.0 mg/kg; minimum dose for activity ([2]; oral): 5.0 mg/kg
4 | COc1cc(N)c(Cl)cc1C(=O)NCC1CCCN2CCCCC12 (single isomer, unassigned) [4 (Isomer B), (±) 4-Amino-5-chloro-2-methoxy-N-(1'-guinolizidinyl-methyl)-benzamide] | inactive | –
5 | COc1cc(N)c(Cl)cc1C(=O)NCC1CCCC2CCCCN2C1 (racemic) [Example 8, (±) 4-Amino-5-chloro-2-methoxy-N-[3'-(1'-azabicyclo[5,4, O]-hendecyl-methyl)]-benzamide] | inactive | –
6 | COc1cc(N)c(Cl)cc1C(=O)NCC1CCC2CCCCN2C1 (single isomer, unassigned) [Example 2 (Isomer A), (±) 4-Amino-5-chloro-2-methoxy-N-(3'-quinolizidinyl-methyl)-benzamide] | inactive | minimal effective dose ([2]; oral): 5 mg/kg; minimum dose for activity ([2]; Subcut): 0.2 mg/kg; Inhibition of climbing ([3]; apomorphine 1 mg/kg sc, climbing scored at 10, 20 and 30 minutes): inactive
7 | COc1cc(N)c(Cl)cc1C(=O)NCC1CCCN2CCCCC12 (single isomer, unassigned) [Example 4 (Isomer A), (±) 4-Amino-5-chloro-2-methoxy-N-(1'-guinolizidinyl-methyl)-benzamide] | inactive | –
8 | COc1cc(N)c(Cl)cc1C(=O)NCC1CCC2CCCCN21 (single isomer, unassigned) [Example 14 (Isomer A), (±) 4-Amino-5-chloro-2-methoxy-N-(3'-indolizidiny-methyl)-benzamide] | inactive | ED50 ([3]; Mus musculus, read-out: ED50): 20 mg/kg
